Test results published in PMC7070036, “An amber obligate active site-directed ligand evolution technique for phage display” (Nature Communications, 2020).
Starred links: 1 amine or outer side, 2 acyl side, 3 side chain; linkers in the order of their positions; H or OH if unused. Non-standard residues stand in square brackets, D forms with d. Residues, ends and D or L forms follow the SMILES beside them. X1 = CCCC(=S)NCCCC[C@H](N[*:1])C(=O)[*:2]

Key:
Assay type in all cases: biochemical
SIRT3 = biological target: T1, SIRT3 (Homo sapiens, UniProt Q9NTG7); test: Continuous fluorogenic sirtuin inhibition assay, SIRT3
T1 sequence (Q9NTG7 1-399): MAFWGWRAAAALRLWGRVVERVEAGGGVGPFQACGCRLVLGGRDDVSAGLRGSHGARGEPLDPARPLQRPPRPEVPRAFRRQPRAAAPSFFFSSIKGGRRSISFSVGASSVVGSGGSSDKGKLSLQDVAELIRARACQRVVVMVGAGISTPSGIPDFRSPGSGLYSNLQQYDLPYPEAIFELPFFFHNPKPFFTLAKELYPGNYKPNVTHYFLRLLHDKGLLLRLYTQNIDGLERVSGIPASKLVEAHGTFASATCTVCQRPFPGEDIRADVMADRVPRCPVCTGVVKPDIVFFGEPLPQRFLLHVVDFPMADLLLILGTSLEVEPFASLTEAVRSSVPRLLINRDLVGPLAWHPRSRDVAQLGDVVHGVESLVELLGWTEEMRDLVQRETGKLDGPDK
Procedure: (§1) The continuous assay for comparing isoform specificity of S2P04 was performed using the universal fluorogenic sirtuin substrate described by Schuster et al.[41]. Briefly, the inhibition reactions were performed in 50-µL volumes at 37 °C in black, half-area, 96-well plates. The sirtuin enzyme (0.25 µM) was preincubated with different concentrations of the peptide S2P04 (0.0064–50 µM for SIRT1 and SIRT2, 0.5–100 µM for SIRT3) or TB (0.16–150 µM for SIRT1–SIRT3), and 1 mM NAD^+ in assay buffer (20 mM Tris, pH 7.8, 150 mM NaCl, 5 mM MgCl2, and 1 mM DTT) for 15 min. Following incubation, the reaction started with the addition of the fluorogenic substrate (5 µM), and product formation was monitored by measuring the fluorescence intensity every 20 s for 5 min (SIRT2) or 30 min (SIRT1 and SIRT3) in a BioTek Synergy H1 microplate reader at λex = 320 nm and λem = 408 nm (gain = 130 and read height = 7 mm). Initial rates of product formation were determined by a linear regression of the plot of fluorescence intensity vs. time and normalized relative to 0% (max inhibitor) and 100% (no inhibitor) controls. The assay was repeated to determine the IC50 values of all BuK peptides for SIRT2. IC50 values were determined by nonlinear regression of the plot of the normalized initial rate vs. inhibitor concentration using GraphPad Prism. The determined IC50 values are provided in Supplementary Table 2, and inhibition curves can be seen in Supplementary Fig. 20.

SIRT2 = biological target: T2, SIRT2 (Homo sapiens, UniProt Q8IXJ6); test: Continuous fluorogenic sirtuin inhibition assay, SIRT2 (tBuK peptides, TB)
T2 sequence (Q8IXJ6 1-389): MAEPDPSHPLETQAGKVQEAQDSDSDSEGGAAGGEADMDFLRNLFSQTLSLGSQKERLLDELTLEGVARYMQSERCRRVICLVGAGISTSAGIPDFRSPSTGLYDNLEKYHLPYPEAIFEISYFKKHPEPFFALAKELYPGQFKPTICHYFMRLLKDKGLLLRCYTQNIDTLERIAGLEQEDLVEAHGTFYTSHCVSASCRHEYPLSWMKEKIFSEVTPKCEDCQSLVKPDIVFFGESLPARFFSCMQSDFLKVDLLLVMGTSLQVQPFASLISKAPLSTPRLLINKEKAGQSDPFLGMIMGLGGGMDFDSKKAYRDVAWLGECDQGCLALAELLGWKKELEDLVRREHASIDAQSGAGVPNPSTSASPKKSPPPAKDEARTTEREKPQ
Procedure: as §1

SIRT1 = biological target: T3, SIRT1 (Homo sapiens, UniProt Q96EB6); test: Continuous fluorogenic sirtuin inhibition assay, SIRT1
T3 sequence (Q96EB6 1-747): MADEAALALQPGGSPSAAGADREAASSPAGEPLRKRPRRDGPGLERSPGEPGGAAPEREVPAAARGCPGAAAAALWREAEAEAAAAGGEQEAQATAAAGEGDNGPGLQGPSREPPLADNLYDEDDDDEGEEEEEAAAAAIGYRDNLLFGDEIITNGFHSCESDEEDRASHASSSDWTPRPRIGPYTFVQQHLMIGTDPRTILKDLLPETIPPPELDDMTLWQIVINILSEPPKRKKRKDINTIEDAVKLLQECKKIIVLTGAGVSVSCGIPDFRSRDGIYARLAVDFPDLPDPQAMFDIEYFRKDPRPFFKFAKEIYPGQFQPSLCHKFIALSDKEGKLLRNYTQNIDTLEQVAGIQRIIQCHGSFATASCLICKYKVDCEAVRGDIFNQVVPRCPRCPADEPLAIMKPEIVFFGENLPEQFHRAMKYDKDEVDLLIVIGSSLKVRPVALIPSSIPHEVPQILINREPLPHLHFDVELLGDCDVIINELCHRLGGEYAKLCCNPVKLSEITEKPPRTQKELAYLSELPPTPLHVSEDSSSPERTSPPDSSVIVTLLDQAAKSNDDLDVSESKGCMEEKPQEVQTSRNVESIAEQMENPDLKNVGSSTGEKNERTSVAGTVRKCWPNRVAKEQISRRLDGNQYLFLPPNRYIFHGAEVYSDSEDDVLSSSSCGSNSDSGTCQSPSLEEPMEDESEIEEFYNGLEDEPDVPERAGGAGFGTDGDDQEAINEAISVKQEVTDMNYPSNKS
Procedure: as §1

[1] = mean ± SD of two independent experiments

Question: What does the source list for `CCCC(=S)NCCCC[C@H](NC(=O)[C@@H](NC(=O)[C@@H](NC(=O)[C@H](CS)NC(=O)[C@@H](N)[C@@H](C)O)[C@@H](C)O)C(C)C)C(=O)N[C@H](C(=O)NCC(N)=O)[C@@H](C)CC` [S2P04-tBuK] (H-TCTV[X1]IG-NH2)?
Answer: remaining activity at 0.5 µM (SIRT3; inhibitor 0.5 µM, read-out: Normalized Activity, SIRT3): 98.2%; remaining activity at 1 µM (SIRT3; inhibitor 1 µM, read-out: Normalized Activity, SIRT3): 96.2%; remaining activity at 2 µM (SIRT3; inhibitor 2 µM, read-out: Normalized Activity, SIRT3): 103%; remaining activity at 4 µM (SIRT3; inhibitor 4 µM, read-out: Normalized Activity, SIRT3): 82.4%; remaining activity at 10 µM (SIRT3; inhibitor 10 µM, read-out: Normalized Activity, SIRT3): 59.8%; remaining activity at 25 µM (SIRT3; inhibitor 25 µM, read-out: Normalized Activity, SIRT3): 29.6%; remaining activity at 50 µM (SIRT3; inhibitor 50 µM, read-out: Normalized Activity, SIRT3): 9.72%; remaining activity at 100 µM (SIRT3; inhibitor 100 µM, read-out: Normalized Activity, SIRT3): 0%; IC50 (SIRT3; [1]): 14000 ± 1000 nM; remaining activity at 0.0064 µM (SIRT2; inhibitor 0.0064 µM, read-out: Normalized Activity, SIRT2): 94.8%; activity at 0.0064 µM (SIRT2; inhibitor 0.0064 µM, single trials): 85.9%; %Activity, SIRT2 (SIRT2; inhibitor 0.0064 µM, single trials, 0.0064 µM): 94.59%; remaining activity at 0.032 µM (SIRT2; inhibitor 0.032 µM, read-out: Normalized Activity, SIRT2): 85.2%; activity at 0.032 µM (SIRT2; inhibitor 0.032 µM, single trials): 77.2%; %Activity, SIRT2 (SIRT2; inhibitor 0.032 µM, single trials, 0.032 µM): 83.831%; remaining activity at 0.5 µM (SIRT2; inhibitor 0.5 µM, read-out: Normalized Activity, SIRT2): 5.68%; activity at 0.5 µM (SIRT2; inhibitor 0.5 µM, single trials): 5.65%; %Activity, SIRT2 (SIRT2; inhibitor 0.5 µM, single trials, 0.5 µM): 6.5384%; remaining activity at 1 µM (SIRT2; inhibitor 1 µM, read-out: Normalized Activity, SIRT2): 3.34%; activity at 1 µM (SIRT2; inhibitor 1 µM, single trials): 3.54%; %Activity, SIRT2 (SIRT2; inhibitor 1 µM, single trials, 1 µM): 4.6849%; remaining activity at 2 µM (SIRT2; inhibitor 2 µM, read-out: Normalized Activity, SIRT2): 3.21%; activity at 2 µM (SIRT2; inhibitor 2 µM, single trials): 3.42%; %Activity, SIRT2 (SIRT2; inhibitor 2 µM, single trials, 2 µM): 4.4288%; remaining activity at 4 µM (SIRT2; inhibitor 4 µM, read-out: Normalized Activity, SIRT2): 2.33%; activity at 4 µM (SIRT2; inhibitor 4 µM, single trials): 2.63%; %Activity, SIRT2 (SIRT2; inhibitor 4 µM, single trials, 4 µM): 3.5157%; remaining activity at 50 µM (SIRT2; inhibitor 50 µM, read-out: Normalized Activity, SIRT2): 0%; activity at 50 µM (SIRT2; inhibitor 50 µM, single trials): 0.535%; %Activity, SIRT2 (SIRT2; inhibitor 50 µM, single trials, 50 µM): 1.0081%; IC50 (SIRT2; mean ± SD of two independent experiments, read-out: IC50, SIRT2): 92 ± 3 nM; remaining activity at 0.0064 µM (SIRT1; inhibitor 0.0064 µM, read-out: Normalized Activity, SIRT1): 92.8%; remaining activity at 0.032 µM (SIRT1; inhibitor 0.032 µM, read-out: Normalized Activity, SIRT1): 87.5%; remaining activity at 0.5 µM (SIRT1; inhibitor 0.5 µM, read-out: Normalized Activity, SIRT1): 26.2%; remaining activity at 2 µM (SIRT1; inhibitor 2 µM, read-out: Normalized Activity, SIRT1): 2.97%; remaining activity at 50 µM (SIRT1; inhibitor 50 µM, read-out: Normalized Activity, SIRT1): 0%; IC50 (SIRT1; [1]): 250 ± 50 nM
